Laboratory results published in US8791144B2, “Substituted N-phenyl-1-(4-Pyridinyl)-1H-pyrazol-3-amines” (Janssen Pharmaceutica NV, priority 2009, dated 2014).

Tests used:
hα7-wt nAChR [1] = target: T1, hα7-wt nAChR (Homo sapiens, UniProt P36544); test: Ca2+ flux imaging (FDSS): potentiation of the choline response; assay type: cell-based; conditions: Ca2+ assay as described in D.1; potentiation of choline response, hα7-wt nAChR; read-out: Potency (pEC50) (converted)
Description: • a) Assay Buffer • Hanks buffered saline solution (HBSS, Invitrogen, Belgium), supplemented with 10 mM HEPES (Invitrogen, Belgium), CaCl2 to a final concentration of 5 mM, 0.1% Bovine serum albumin (Sigma-Aldrich NV, Belgium). • b) Calcium-Sensitive Dye—Fluo-4AM • Fluo-4AM (Molecular Probes, USA) was dissolved in DMSO containing 10% Pluronic acid (Molecular Probes, USA) to give a stock solution which was diluted in assay buffer supplemented with 5 mM probenicid (Sigma, Aldrich NV, Belgium) to give a final concentration of 2 μM. • c) 384-Well Plates • Black 384 well plate black/clear plates, PDL pre-coated (Corning, Incorporated, USA) • d) Calcium Flux Measurement • A Functional drug screening system (FDSS, Hamamatsu) was used to measure intracellular free-calcium flux signals. Method
Monolayers of hα7-wt nAChR-expressing cells were grown in multi-well plates, in particular black-sided, transparent bottomed 384 well plates coated with poly-D-lysine for 24 hours prior to loading with a fluorescent calcium indicator, in a particular embodiment loading with fluo-4AM for up to 120 minutes.
PAM activity was detected in real time by applying the compounds to be tested to the loaded cells along with a α7 nicotinic receptor agonist during constant monitoring of cellular fluorescence in a FDSS. Compounds giving peak fluorescent responses greater than the response due to agonist alone, were considered to be α7 nAChR PAM's. In a particular embodiment, the α7 nicotinic receptor agonist was choline, a more particular embodiment choline applied at a sub-maximal concentration of 100 μM. In a further setting of the present invention the compounds to be tested were applied prior to the α7 nicotinic receptor agonist, in a particular embodiment up to 10 minutes prior to the agonist.
A control response to choline was calculated on each plate from the difference in peak in fluorescence in wells receiving either choline or assay buffer alone. Compounds of the present invention were tested at a concentration range from 0.01 μM to 30 μM. Compounds were considered to have an interesting activity when they potentiated the choline signal at least with 200% when tested at a concentration of 30 μM (the efficacy of 100 μM choline was defined as 100% in the absence of a PAM). An EC50 (or pEC50) was determined as a concentration relating to half the maximal effect, when a clear sigmoidal curve with top plateau was obtained.

hα7-wt nAChR [2] = target: T1, hα7-wt nAChR; test: Patch-clamp current recording (whole-cell voltage clamp), potentiation of choline current and PAM type; assay type: cell-based; design: key: Type 0 compounds minimally enhance the effect size of the current elicited by 1 mM choline.; Type 1 compounds enhance the effect size of the current elicited by 1 mM choline but minimally alter the kinetics of the receptor.; Type 2 compounds enhance the effect size of the current elicited by 1 mM choline while reducing the rate and/or the extent of desensitization.; Type 3 compounds enhance the effect size of the current elicited by 1 mM choline. When tested at higher concentrations up to 10 μM they completely inhibit desensitization, in particular a 1 mM choline application of 250 milliseconds.; Type 4 compounds allow for an initial desensitization of the receptor followed by a re-opening of the receptor during agonist application; conditions: hα7-wt nAChR-expressing GH4C1 cells, 1 mM choline
Description: The compounds of the present invention are classified as type 0-4, based on qualitative kinetic properties, as determined by whole-cell voltage-clamp recordings. This classification is based on the effect of an α7 PAM compound, as described hereinbefore, on the signal elicited by an agonist application. In particular, said agonist is choline at a concentration of 1 mM. In a preferred experimental setting, said α7 PAM compound and choline are simultaneously applied to the cell, as described hereinafter. Desensitization is defined as the closure of the receptor upon activation during the application of the agonist in whole-cell voltage-clamp electrophysiology measurements seen as the reduction of the […] current after initial activation by the agonist.
The definition of the PAM types 0-4 is described hereinafter: • Type 0 compounds minimally enhance the effect size of the current elicited by 1 mM choline. • Type 1 compounds enhance the effect size of the current elicited by 1 mM choline but minimally alter the kinetics of the receptor. In particular, the rate and the extent of desensitization, elicited by the agonist, is not affected. The compound-modulated response to 1 mM choline, therefore, is a close to linear scaling of the 1 mM choline response in absence of the α7 PAM compound. • Type 2 compounds enhance the effect size of the current elicited by 1 mM choline while reducing the rate and/or the extent of desensitization. • Type 3 compounds enhance the effect size of the current elicited by 1 mM choline. […] At low-potency concentrations of the α7 PAM compound, the agonist-induced activation, which is followed by desensitization, can still be separated from the compound-induced re-opening as an initial inward current-maximum. At higher potency concentrations of the α7 PAM compound, the re-opening occurs faster than the closure due to desensitization so that the initial current-maximum disappears.
A compound was considered to have interesting PAM-like activity when the potentiation of the peak current was at least 200% compared to the control choline response (=100%). Such compounds are classified as belonging to a particular PAM type in the Experimental Part. Compounds not meeting the condition are not classified as belonging to a particular PAM-type.
The compounds also have a potentiating effect on the response to choline when measured by whole-cell patch clamp electrophysiology in GH4C1 cells stably over-expressing the human wild-type α7 receptor.
Patch-clamp recording from mammalian cells has provided a powerful means of assessing the function of membrane-bound proteins thought to be subunits of ligand-gated ion channels. Activation of such proteins by endogenous or exogenous ligands cause opening of a pore associated with the receptor through which ions flow down their electrochemical gradient. In the case of the hα7-wt nAChR-expressing GH4C1 recombinant cell line the preferential permeability to calcium of this receptor means that calcium flows into the cell upon activation by ACh, choline and other nicotinic ligands giving rise to a calcium current. Since this receptor rapidly desensitizes in the presence of agonist it is important an application system is used which is capable of very rapid switching of solutions (<100 ms) to prevent partial or full desensitisation of receptor responses coincident with the time of agonist application. Consequently, a second convenient technique to assess the enhancement of nicotinic efficacy is patch-clamp recording from hα7-wt nAChR-expressing GH4C1 cells coupled with a rapid-application system.
• a) Assay Buffers • The external recording solution consisted of 152 mM NaCl, 5 mM KCl, 1 mM MgCl2, 1 mM Calcium, 10 mM HEPES; pH 7.3. […]

T1 sequence (P36544 23-502): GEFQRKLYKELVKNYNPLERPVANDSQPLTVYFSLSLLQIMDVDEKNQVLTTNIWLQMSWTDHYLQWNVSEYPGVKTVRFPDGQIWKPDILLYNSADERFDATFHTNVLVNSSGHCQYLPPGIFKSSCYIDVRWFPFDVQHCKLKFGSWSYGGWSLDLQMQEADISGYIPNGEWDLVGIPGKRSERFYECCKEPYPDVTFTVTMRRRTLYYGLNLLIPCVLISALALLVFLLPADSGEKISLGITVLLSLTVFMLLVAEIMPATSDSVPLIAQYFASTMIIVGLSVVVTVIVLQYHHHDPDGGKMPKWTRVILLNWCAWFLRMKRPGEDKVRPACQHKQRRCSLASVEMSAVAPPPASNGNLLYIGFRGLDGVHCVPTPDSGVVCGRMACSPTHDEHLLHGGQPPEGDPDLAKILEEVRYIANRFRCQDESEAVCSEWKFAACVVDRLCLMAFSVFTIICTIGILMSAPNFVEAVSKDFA

Row | Structure (SMILES) | EC50 (hα7-wt nAChR [1]) | melting point | PAM type (hα7-wt nAChR [2])
1 | Cc1cc(-n2nc(Nc3cccc(OC(F)(F)F)c3)cc2CC(=O)NCC2CC2)ccn1 [Compound 119, N-(cyclopropylmethyl)-1-(2-methyl-4-pyridinyl)-3-[[3-(trifluoromethoxy)phenyl]amino]-1H-pyrazole-5-acetamide] | 324 nM | 191.7 °C | 2
2 | CC[C@H](O)Cc1cc(Nc2cccc(OC(F)(F)F)c2)nn1-c1ccnc(C)c1 [Compound 106, (alphaS)-alpha-ethyl-1-(2-methyl-4-pyridinyl)-3-[[3-(trifluoromethoxy)phenyl]amino]-1H-pyrazole-5-ethanol] | 1820 nM | 147.3 °C | 2
3 | Cc1cc(-n2nc(Nc3cccc(OC(F)(F)F)c3)cc2CC(=O)NC(C)C)cc(C)n1 [Compound 116, 1-(2,6-dimethyl-4-pyridinyl)-N-(1-methylethyl)-3-[[3-(trifluoromethoxy)phenyl]amino]-1H-pyrazole-5-acetamide] | 245 nM | 229.1 °C | 2
4 | CC[C@H](O)Cc1cc(Nc2ccc(F)c(F)c2F)nn1-c1ccnc(C)c1 [Compound 18, (alphaS)-alpha-ethyl-1-(2-methyl-4-pyridinyl)-3-[(2,3,4-trifluorophenyl)amino]-1H-pyrazole-5-ethanol] | 2400 nM | 149.1 °C | 1
5 | CNC(=O)Cc1cc(Nc2cccc(C(F)(F)F)c2)nn1-c1ccnc(C)c1 [Compound 42, N-methyl-1-(2-methyl-4-pyridinyl)-3-[[3-(trifluoromethyl)phenyl]amino]-1H-pyrazole-5-acetamide] | 1860 nM |  | 4
6 | CC[C@H](O)Cc1cc(Nc2ccc(Br)cc2C#N)nn1-c1ccnc(C)c1 [Compound 124, 5-bromo-2-[[5-[(2S)-2-hydroxybutyl]-1-(2-methyl-4-pyridinyl)-1H-pyrazol-3-yl]amino]-benzonitrile] | 1660 nM |  | 2
7 | CCNC(=O)Cc1cc(Nc2cccc(Cl)c2F)nn1-c1cc(C)nc(C)c1 [Compound 75, 3-[(3-chloro-2-fluorophenyl)amino]-1-(2,6-dimethyl-4-pyridinyl)-N-ethyl-1H-pyrazole-5-acetamide] | 372 nM |  | 2
8 | CC[C@H](O)Cc1cc(Nc2cc(F)c(F)c(F)c2)nn1-c1ccnc(C)c1 [Compound 20, (alphaS)-alpha-ethyl-1-(2-methyl-4-pyridinyl)-3-[(3,4,5-trifluorophenyl)amino]-1H-pyrazole-5-ethanol] | 851 nM |  | 2

More lines, main results first:

Row | EC50 (hα7-wt nAChR [1]) | melting point | Structure (SMILES) | PAM type (hα7-wt nAChR [2])
9 | 295 nM |  | Cc1cc(-n2nc(Nc3cccc(C(F)(F)F)c3)cc2CCC(=O)N(C)C)ccn1 [Compound 49, N,N-dimethyl-1-(2-methyl-4-pyridinyl)-3-[[3-(trifluoromethyl)phenyl]amino]-1H-pyrazole-5-propanamide] | 4
10 | 933 nM | 129.2 °C | CC[C@H](O)Cc1cc(Nc2cc(OC)cc(C(F)(F)F)c2)nn1-c1ccnc(C)c1 [Compound 39, (alphaS)-alpha-ethyl-3-[[3-methoxy-5-(trifluoromethyl)phenyl]amino]-1-(2-methyl-4-pyridinyl)-1H-pyrazole-5-ethanol] | 4
11 | 2240 nM | 149.3 °C | CC[C@H](O)Cc1cc(Nc2cccc(Cl)c2)nn1-c1ccnc(C)c1 [Compound 57, (alphaS)-3-[(3-chlorophenyl)amino]-alpha-ethyl-1-(2-methyl-4-pyridinyl)-1H-pyrazole-5-ethanol] | 2
12 | 295 nM |  | COc1cc(Cl)cc(Nc2cc(CCC(=O)N(C)C)n(-c3ccnc(C)c3)n2)c1 [Compound 85, 3-[(3-chloro-5-methoxyphenyl)amino]-N,N-dimethyl-1-(2-methyl-4-pyridinyl)-1H-pyrazole-5-propanamide] | 4
13 | 562 nM | 237.9 °C | CNC(=O)Cc1cc(Nc2cc(OC)cc(C(F)(F)F)c2)nn1-c1ccnc(C)c1 [Compound 43, 3-[[3-methoxy-5-(trifluoromethyl)phenyl]amino]-N-methyl-1-(2-methyl-4-pyridinyl)-1H-pyrazole-5-acetamide] | 4
14 | 148 nM | 248.7 °C | COc1cc(Cl)cc(Nc2cc(CC(=O)NCC3CC3)n(-c3ccnc(C)c3)n2)c1 [Compound 81, 3-[(3-chloro-5-methoxyphenyl)amino]-N-(cyclopropylmethyl)-1-(2-methyl-4-pyridinyl)-1H-pyrazole-5-acetamide] | 0
15 | 977 nM |  | Cc1cc(-n2nc(Nc3ccc(F)c(F)c3)cc2CCC(=O)N(C)C)ccn1 [Compound 30, 3-[(3,4-difluorophenyl)amino]-N,N-dimethyl-1-(2-methyl-4-pyridinyl)-1H-pyrazole-5-propanamide] | 4
16 | 661 nM |  | Cc1cc(-n2nc(Nc3cccc(Cl)c3F)cc2CCC(=O)N(C)C)ccn1 [Compound 84, 3-[(3-chloro-2-fluorophenyl)amino]-N,N-dimethyl-1-(2-methyl-4-pyridinyl)-1H-pyrazole-5-propanamide] | 4
17 | 162 nM |  | CC[C@@H](O)Cc1cc(Nc2cc(OC)cc(C(F)(F)F)c2)nn1-c1ccnc(C)c1 [Compound 36, (alphaR)-alpha-ethyl-3-[[3-methoxy-5-(trifluoromethyl)phenyl]amino]-1-(2-methyl-4-pyridinyl)-1H-pyrazole-5-ethanol] | 2
18 | 603 nM |  | COc1cc(Cl)cc(Nc2cc(CC(=O)NC3CC3)n(-c3ccnc(C)c3)n2)c1 [Compound 77, 3-[(3-chloro-5-methoxyphenyl)amino]-N-cyclopropyl-1-(2-methyl-4-pyridinyl)-1H-pyrazole-5-acetamide] | 4
